Measured values: article PMC6485449 (Clinical cancer research : an official journal of the …, 2013)
pEC50, pIC50: −log10 of the molar value. Several values for one entry are separate records, joined by “and”; a condition that tells them apart may be missing. Equal entries are not always repeated. Entries after “also recorded” stand apart in the source; their conditions may differ. Where two headings read alike, the source gives them in different places.

Columns and labels:
[1] = test system: PAR synthesis in LoVo cells; experiment: Intracellular PAR formation assay; type: cell-based; conditions: Homo sapiens
LoVo cells = experiment: Temozolomide potentiation; type: cell-based, human
[2] = test system: Capan-1 (BRCA2 deficient); experiment: Single-agent cytotoxicity assay, Capan-1; type: cell-based, human
PC-3 (PTEN deficient) = experiment: Single-agent 2-D cytotoxicity assay, PC-3; type: cell-based; conditions: Homo sapiens, read-out: SF50 PC-3 (PTEN deficient)
MDA-MB-231 = experiment: Single-agent 2-D cytotoxicity assay, MDA-MB-231; type: cell-based; conditions: Homo sapiens, MDA-MB-231, read-out: SF50 MDA-MB-231
MRC-5 (Normal) = experiment: Single-agent 2-D cytotoxicity assay, MRC-5; type: cell-based, human
[3] = molecular target: Poly (ADP-ribose) Glycohydrolase (PARG) (Homo sapiens, UniProt Q86W56); experiment: PARG activity assay; type: biochemical; conditions: concentrations up to 1 μM; data not shown
Sequence of Poly (ADP-ribose) Glycohydrolase (PARG) (Q86W56 whole entry, species assumed): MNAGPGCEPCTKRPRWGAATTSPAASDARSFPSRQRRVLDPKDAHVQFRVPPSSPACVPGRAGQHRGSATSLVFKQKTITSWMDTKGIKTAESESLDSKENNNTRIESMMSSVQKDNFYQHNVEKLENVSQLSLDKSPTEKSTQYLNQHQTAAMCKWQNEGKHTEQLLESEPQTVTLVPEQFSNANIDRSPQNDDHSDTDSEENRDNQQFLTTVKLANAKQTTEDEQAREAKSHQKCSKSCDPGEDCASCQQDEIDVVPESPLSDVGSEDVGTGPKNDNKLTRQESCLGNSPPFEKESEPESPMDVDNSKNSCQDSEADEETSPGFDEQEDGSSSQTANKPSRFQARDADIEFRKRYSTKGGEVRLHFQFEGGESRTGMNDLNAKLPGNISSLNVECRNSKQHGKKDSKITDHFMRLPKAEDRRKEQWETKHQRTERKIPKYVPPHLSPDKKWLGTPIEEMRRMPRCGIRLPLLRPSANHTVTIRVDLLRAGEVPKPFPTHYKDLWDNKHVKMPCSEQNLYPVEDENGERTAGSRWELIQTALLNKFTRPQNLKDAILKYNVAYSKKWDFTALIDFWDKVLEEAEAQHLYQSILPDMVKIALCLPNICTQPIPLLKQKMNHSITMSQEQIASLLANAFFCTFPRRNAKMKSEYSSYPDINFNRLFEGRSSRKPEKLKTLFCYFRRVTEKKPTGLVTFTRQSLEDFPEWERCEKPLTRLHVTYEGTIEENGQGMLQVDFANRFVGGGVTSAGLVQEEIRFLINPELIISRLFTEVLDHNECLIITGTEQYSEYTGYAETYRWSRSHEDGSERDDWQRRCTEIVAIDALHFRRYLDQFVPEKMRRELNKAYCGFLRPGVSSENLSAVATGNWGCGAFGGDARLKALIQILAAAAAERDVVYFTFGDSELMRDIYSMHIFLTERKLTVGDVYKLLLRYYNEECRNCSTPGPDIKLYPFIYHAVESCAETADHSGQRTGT

[4] = molecular target: potassium ion channel hERG (Homo sapiens, UniProt Q12809); experiment: hERG in vitro assay; conditions: concentrations as high as 100 μM
Sequence of potassium ion channel hERG (Q12809 whole entry): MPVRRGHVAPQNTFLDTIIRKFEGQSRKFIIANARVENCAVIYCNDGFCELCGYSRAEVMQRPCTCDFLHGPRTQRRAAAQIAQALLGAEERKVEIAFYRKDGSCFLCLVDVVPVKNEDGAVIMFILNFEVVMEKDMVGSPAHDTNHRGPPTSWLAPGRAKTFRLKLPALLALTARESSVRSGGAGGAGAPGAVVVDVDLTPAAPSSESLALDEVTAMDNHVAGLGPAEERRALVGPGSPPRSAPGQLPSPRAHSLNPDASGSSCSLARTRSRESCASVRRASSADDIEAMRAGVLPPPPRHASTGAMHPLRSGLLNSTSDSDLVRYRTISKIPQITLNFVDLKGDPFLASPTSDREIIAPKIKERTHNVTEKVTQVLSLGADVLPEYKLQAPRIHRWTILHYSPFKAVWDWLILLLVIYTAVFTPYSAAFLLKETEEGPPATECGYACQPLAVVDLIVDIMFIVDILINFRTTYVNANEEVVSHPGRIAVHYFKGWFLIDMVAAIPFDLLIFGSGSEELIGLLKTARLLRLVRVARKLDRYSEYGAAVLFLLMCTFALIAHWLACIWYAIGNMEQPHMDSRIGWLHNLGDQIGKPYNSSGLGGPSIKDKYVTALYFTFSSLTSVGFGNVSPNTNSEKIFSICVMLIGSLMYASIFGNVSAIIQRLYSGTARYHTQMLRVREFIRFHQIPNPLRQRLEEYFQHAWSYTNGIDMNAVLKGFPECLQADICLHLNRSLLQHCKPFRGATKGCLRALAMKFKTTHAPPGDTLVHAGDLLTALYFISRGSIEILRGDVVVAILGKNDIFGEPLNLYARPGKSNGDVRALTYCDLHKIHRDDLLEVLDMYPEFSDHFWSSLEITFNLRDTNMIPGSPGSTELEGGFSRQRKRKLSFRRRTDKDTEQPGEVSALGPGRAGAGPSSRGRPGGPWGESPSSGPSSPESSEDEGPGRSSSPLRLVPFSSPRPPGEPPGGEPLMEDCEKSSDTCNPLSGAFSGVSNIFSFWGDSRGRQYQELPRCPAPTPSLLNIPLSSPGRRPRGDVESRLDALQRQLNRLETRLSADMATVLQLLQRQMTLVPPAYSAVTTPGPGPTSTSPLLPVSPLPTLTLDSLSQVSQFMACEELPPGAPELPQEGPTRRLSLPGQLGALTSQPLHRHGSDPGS

[5] = Liver microsome stability, rat; type: in vitro ADME; conditions: rats, two hours, 1 μM
[6] = Liver microsome stability, dog; type: in vitro ADME; conditions: dogs, two hours, 1 μM
[7] = Liver microsome stability, human; type: in vitro ADME; conditions: humans, two hours, 1 μM
CYP1A2 = molecular target: T1, CYP1A2 (Homo sapiens, UniProt P05177); experiment: CYP450 inhibition, CYP1A2; type: in vitro ADME; conditions: concentrations up to 10 μM; data not shown
T1 sequence (P05177 1-516): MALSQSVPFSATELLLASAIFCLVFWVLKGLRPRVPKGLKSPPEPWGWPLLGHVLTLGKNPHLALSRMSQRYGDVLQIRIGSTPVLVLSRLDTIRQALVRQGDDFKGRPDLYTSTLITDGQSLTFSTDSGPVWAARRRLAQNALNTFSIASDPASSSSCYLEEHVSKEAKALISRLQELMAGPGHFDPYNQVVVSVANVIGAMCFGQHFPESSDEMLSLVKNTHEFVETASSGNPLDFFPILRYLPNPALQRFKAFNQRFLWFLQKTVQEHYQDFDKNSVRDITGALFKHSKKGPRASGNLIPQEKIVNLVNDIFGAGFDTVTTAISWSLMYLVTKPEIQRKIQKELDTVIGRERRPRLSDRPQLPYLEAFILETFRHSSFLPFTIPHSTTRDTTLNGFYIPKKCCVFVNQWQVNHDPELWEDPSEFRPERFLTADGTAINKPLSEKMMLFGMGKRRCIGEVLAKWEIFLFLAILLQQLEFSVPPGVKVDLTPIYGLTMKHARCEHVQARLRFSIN

CYP2C9 = CYP2C9 (Homo sapiens, UniProt P11712); experiment: CYP450 inhibition, CYP2C9; type: in vitro ADME; conditions: concentrations up to 10 μM; data not shown
Sequence of CYP2C9 (P11712 whole entry): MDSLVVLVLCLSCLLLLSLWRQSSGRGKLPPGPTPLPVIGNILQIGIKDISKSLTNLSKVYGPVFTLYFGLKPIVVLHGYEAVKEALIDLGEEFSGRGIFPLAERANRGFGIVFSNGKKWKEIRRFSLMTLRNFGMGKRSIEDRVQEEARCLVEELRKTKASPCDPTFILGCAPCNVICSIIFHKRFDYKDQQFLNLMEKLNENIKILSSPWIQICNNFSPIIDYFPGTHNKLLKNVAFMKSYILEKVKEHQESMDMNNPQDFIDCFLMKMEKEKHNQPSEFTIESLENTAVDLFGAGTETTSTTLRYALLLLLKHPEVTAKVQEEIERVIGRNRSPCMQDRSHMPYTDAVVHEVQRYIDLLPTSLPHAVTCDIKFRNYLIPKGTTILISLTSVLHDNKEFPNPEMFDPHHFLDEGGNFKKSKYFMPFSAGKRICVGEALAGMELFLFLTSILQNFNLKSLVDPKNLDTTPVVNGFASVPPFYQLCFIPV

CYP2C19 = CYP2C19 (Homo sapiens, UniProt P33261); experiment: CYP450 inhibition, CYP2C19; type: in vitro ADME; conditions: concentrations up to 10 μM; data not shown
Sequence of CYP2C19 (P33261 whole entry): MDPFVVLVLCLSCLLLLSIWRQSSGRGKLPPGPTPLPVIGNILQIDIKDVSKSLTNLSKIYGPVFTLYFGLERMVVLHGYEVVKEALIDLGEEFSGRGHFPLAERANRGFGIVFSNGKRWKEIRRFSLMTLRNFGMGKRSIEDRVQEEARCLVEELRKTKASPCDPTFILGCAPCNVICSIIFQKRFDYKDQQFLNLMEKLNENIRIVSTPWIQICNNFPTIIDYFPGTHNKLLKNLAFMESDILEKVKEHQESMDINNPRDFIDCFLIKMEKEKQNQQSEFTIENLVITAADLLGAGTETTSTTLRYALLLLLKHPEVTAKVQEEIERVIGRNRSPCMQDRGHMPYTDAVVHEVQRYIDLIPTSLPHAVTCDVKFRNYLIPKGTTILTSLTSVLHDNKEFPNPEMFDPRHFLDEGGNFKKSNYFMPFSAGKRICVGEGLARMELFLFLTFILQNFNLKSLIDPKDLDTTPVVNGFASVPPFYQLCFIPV

CYP2D6 = CYP2D6 (Homo sapiens, UniProt P10635); experiment: CYP450 inhibition, CYP2D6; type: in vitro ADME; conditions: concentrations up to 10 μM; data not shown
Sequence of CYP2D6 (P10635 whole entry): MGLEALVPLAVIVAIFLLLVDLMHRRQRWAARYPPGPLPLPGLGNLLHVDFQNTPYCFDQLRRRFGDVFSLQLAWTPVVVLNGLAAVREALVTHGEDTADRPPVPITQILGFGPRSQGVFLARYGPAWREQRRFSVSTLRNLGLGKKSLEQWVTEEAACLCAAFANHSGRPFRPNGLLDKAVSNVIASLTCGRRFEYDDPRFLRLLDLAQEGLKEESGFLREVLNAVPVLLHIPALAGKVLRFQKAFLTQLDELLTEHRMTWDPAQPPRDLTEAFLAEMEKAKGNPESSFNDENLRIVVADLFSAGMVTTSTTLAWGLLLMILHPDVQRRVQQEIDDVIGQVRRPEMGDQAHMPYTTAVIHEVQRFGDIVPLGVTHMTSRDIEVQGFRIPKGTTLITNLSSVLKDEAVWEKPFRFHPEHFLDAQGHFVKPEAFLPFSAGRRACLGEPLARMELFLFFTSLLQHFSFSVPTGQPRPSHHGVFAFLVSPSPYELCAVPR

CYP3A4 = CYP3A4 (Homo sapiens, UniProt P08684); experiment: CYP450 inhibition, CYP3A4; type: in vitro ADME; conditions: concentrations up to 10 μM; data not shown
Sequence of CYP3A4 (P08684 whole entry): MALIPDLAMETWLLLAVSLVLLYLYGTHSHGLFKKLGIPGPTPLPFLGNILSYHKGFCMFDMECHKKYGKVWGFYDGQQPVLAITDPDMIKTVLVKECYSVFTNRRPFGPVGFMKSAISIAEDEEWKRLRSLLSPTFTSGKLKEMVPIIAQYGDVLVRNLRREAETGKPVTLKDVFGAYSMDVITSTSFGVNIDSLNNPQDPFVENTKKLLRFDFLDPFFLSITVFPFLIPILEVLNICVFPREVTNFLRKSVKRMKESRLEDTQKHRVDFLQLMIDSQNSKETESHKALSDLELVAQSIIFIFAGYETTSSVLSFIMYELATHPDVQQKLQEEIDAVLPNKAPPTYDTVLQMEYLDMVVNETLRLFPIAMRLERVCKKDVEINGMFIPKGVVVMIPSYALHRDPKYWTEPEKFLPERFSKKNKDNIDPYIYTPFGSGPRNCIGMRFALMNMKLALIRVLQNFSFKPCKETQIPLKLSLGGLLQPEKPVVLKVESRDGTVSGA

MX-1 tumor xenografts [8] = experiment: MX-1 xenograft, single agent; type: in vivo, mice
MX-1 tumor PAR levels = experiment: PAR assay in vivo; set-up: species or system mice
MDA-MB-468 xenograft = experiment: MDA-MB-468 xenograft, single agent; type: in vivo, mice
LNCap xenograft = experiment: LNCap xenograft, single agent; type: in vivo, mice; conditions: 0.33 mg/kg oral QDx28, vs vehicle-treated control
MX-1 cells = experiment: SN-38 chemo-sensitization assay; type: cell-based, human; conditions: MX-1 cells in vitro, 5 days
[9] = Combination with platinum drugs in vitro; type: cell-based; conditions: data not shown
MX-1 tumor xenografts [10] = experiment: Cisplatin combination study, MX-1 xenograft; type: in vivo, mice
MX-1 tumor xenografts [11] = experiment: Carboplatin combination study, MX-1 xenograft; type: in vivo, mice
recombinant human PARP1 = recombinant human PARP1 (Homo sapiens, UniProt P09874); conditions: for off-rate / on-rate: immobilized rhPARP1, Biacore T200
Sequence of recombinant human PARP1 (P09874 662-1011): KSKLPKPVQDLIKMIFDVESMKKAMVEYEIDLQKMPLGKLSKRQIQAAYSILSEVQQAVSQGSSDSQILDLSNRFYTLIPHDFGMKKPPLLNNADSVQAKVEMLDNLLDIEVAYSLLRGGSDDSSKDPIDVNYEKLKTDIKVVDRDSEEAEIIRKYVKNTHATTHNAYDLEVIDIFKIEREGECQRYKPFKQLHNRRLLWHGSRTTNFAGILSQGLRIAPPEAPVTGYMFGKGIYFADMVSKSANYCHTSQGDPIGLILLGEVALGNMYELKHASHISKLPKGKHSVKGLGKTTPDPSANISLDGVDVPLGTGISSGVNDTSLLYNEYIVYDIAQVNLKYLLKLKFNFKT

[12] = Homo sapiens, CAPAN-1, read-out: Capan-1 Cytotoxicity IC50
[13] = Homo sapiens, CAPAN-1, read-out: SF50 Capan-1 (BRCA2 deficient)
[14] = Homo sapiens, MRC5, read-out: SF50 MRC-5 (Normal)
[15] = 2 hours after single oral dose (BMN 673 1 mg/kg; olaparib 100 mg/kg)
[16] = 8 hours after single oral dose (BMN 673 1 mg/kg; olaparib 100 mg/kg)
[17] = 24 hours after single oral dose (BMN 673 1 mg/kg; olaparib 100 mg/kg)

Cn1ncnc1[C@H]1c2n[nH]c(=O)c3cc(F)cc(c23)N[C@@H]1c1ccc(F)cc1 [BMN 673, (8S,9R)-5-fluoro-8-(4-fluorophenyl)-9-(1-methyl-1H-1,2,4-triazol-5-yl)-8,9-dihydro-2H-pyrido[4,3,2-de]phthalazin-3(7H)-one]
pEC50 ([1]; read-out: Cellular PAR Synthesis EC50): 8.60
pIC50 ([1]; read-out: intracellular PAR formation IC50): 8.60
potentiation of TMZ cytotoxicity (LoVo cells; combined with 200 μM TMZ): significant potentiation
pIC50 [2, 12]: 8.30
pIC50 [2, 13]: 8.30
pIC50 (PC-3 (PTEN deficient)): 8.40
pIC50 (MDA-MB-231): 5.73
pIC50 (MRC-5 (Normal); [14]): 6.51
effect on PARG activity [3]: no effect
hERG inhibition [4]: no significant inhibition
remaining after incubation in liver microsomes [5]: more than 90%
remaining after incubation in liver microsomes [6]: more than 90%
remaining after incubation in liver microsomes [7]: more than 90%
CYP1A2 inhibition (CYP1A2): did not inhibit
CYP2C9 inhibition (CYP2C9): did not inhibit
CYP2C19 inhibition (CYP2C19): did not inhibit
CYP2D6 inhibition (CYP2D6): did not inhibit
CYP3A4 inhibition (CYP3A4): did not inhibit
effect on tumor growth (MX-1 tumor xenografts [8]; 0.1 mg/kg oral once daily, after extended treatment (>21 days)): small effect on tumor growth
tumor re-establishment after dosing ceased (MX-1 tumor xenografts [8]; 0.165 mg/kg/dose BID x 28, followed eight weeks after dosing ceased): none of the mice had tumor re-growth; also recorded: no re-establishment of tumor
mice achieving complete response (CR) (MX-1 tumor xenografts [8]; 0.165 mg/kg/dose oral BID, 28 days): all 6 mice and 6/6
tolerability (MX-1 tumor xenografts [8]; 0.33 mg/kg and 0.1 mg/kg, 28 consecutive once daily oral doses): well tolerated
mice achieving complete response (CR, tumor impalpable) (MX-1 tumor xenografts [8]; 0.33 mg/kg oral once-a-day, 28 days): four CRs out of six
intratumoral PAR level (MX-1 tumor PAR levels; [15]): drastically decreased
intratumoral PAR level (MX-1 tumor PAR levels; [16]): drastically decreased
intratumoral PAR level (MX-1 tumor PAR levels; [17]): Partial recovery
tumor growth delay (MDA-MB-468 xenograft; 0.33 mg/kg oral QDx28, vs vehicle-treated control): 15.9 days
effectiveness of 0.165 mg/kg/dose BIDx28 vs 0.33 mg/kg/dose QDx28 (MDA-MB-468 xenograft; MDA-MB-468 xenograft): slightly more effective
tumor growth delay (LNCap xenograft): 22.8 days
potentiation of the cytotoxic effect of SN38 (MX-1 cells): potentiated
effect of combining with platinum drugs in vitro [9]: clearly additive effect
maximum average weight loss (MX-1 tumor xenografts [10]; BMN 673 0.033 mg/kg plus cisplatin 6 mg/kg IP): 3%
maximum average weight loss (MX-1 tumor xenografts [10]; BMN 673 0.1 mg/kg plus cisplatin 6 mg/kg IP): 5%
maximum average weight loss (MX-1 tumor xenografts [10]; BMN 673 0.33 mg/kg plus cisplatin 6 mg/kg IP): 6%
maximum average weight loss (MX-1 tumor xenografts [10]; BMN 673 1 mg/kg plus cisplatin 6 mg/kg IP): 11%
animal deaths (MX-1 tumor xenografts [10]; BMN 673 1 mg/kg plus cisplatin, Day 20): One animal died
growth of MX-1 tumor xenografts (MX-1 tumor xenografts [10]; BMN 673 oral once daily days 1-8 plus cisplatin 6 mg/kg IP): significantly inhibited in a dose-dependent manner
potentiation of carboplatin anti-tumor effect in vivo (MX-1 tumor xenografts [11]; BMN 673 0.33 mg/kg oral once-a-day 5 or 8 days plus carboplatin 35 mg/kg IP): significant potentiation
tolerability (MX-1 tumor xenografts [11]; BMN 673 0.33 mg/kg plus carboplatin 35 mg/kg IP): No animal lethality or significant body weight loss
off-rate (recombinant human PARP1): 0.000105 s⁻¹
on-rate (recombinant human PARP1): 368000 M⁻¹ s⁻¹
dissociation rate, times slower than that of veliparib (recombinant human PARP1; vs veliparib): ~40 times

O=C(c1cc(Cc2n[nH]c(=O)c3ccccc23)ccc1F)N1CCN(C(=O)C2CC2)CC1 [Olaparib, olaparib]
pIC50 [2, 12]: 6.59
pIC50 [2, 13]: 6.59
pIC50 (PC-3 (PTEN deficient)): 6.10
pIC50 (MDA-MB-231): 5.19
pIC50 (MRC-5 (Normal); [14]): 5.23
intratumoral PAR level (MX-1 tumor PAR levels; [15]): significant decrease
intratumoral PAR level (MX-1 tumor PAR levels; [16]): partial recovery
intratumoral PAR level (MX-1 tumor PAR levels; [17]): complete recovery
cisplatin sensitizing effect (MX-1 tumor xenografts [10]; olaparib 100 mg/kg oral once-a-day day 1 to 8 plus cisplatin 6 mg/kg): equivalent to the lowest dose of BMN 673
maximum body weight loss (MX-1 tumor xenografts [10]; olaparib 100 mg/kg plus cisplatin 6 mg/kg IP): 3%

CNCc1ccc(-c2[nH]c3cc(F)cc4c3c2CCNC4=O)cc1 [Rucaparib, rucaparib]
pIC50 (MDA-MB-231): 5.26
pIC50 (MRC-5 (Normal); [14]): 5.07

Cn1nnc2c(C(N)=O)ncn2c1=O [TMZ, temozolomide, reference compound]
inhibition at 200 µM (LoVo cells; Homo sapiens, 120 h, read-out: cell growth inhibition): ~15%

C[C@]1(c2nc3c(C(N)=O)cccc3[nH]2)CCCN1 [Veliparib, veliparib]
pIC50 ([2]; read-out: Capan-1 Cytotoxicity IC50, single agent, 50% cell survival reduction): < 5.00
pIC50 ([2]; read-out: SF50 Capan-1 (BRCA2 deficient), 2-D cytotoxicity assay): < 5.00
pIC50 (MRC-5 (Normal); read-out: SF50 MRC-5 (Normal), 2-D cytotoxicity assay): < 5.00
off-rate (recombinant human PARP1): 0.0041 s⁻¹
on-rate (recombinant human PARP1): 1.74e+06 M⁻¹ s⁻¹

N.N.[Cl][Pt][Cl] [cisplatin, reference compound]
maximum average body weight loss (MX-1 tumor xenografts [10]; cisplatin alone, 6 mg/kg IP): 3%
